Source: paper doi:10.1101/2024.03.22.586364, “Development of quantitative high-throughput screening assays to identify, validate, and optimize small-molecule stabilizers of misfolded β-glucocerebrosidase with therapeutic potential for Gaucher disease and Parkinson’s disease” (bioRxiv, 2024)
Residue numbers refer to the chain shown, from its start. Where a name gives a salt, the structure may show the parent alone.

Tests used:
HiBiT-GCase-WT = biological target: T1, HiBiT-GCase-WT (Homo sapiens, UniProt P04062); test: HiBiT-GCase-WT lytic luminescence assay, H4 reporter cells; type: cell-based; settings: 24 h treatment, 1536-well format
T1 construct: expressed in transfected cells; host or cells: GBA1-KO H4 human neuroglioma cells; transgene stably integrated at the CLYBL safe-harbor locus by TALENs; CAG promoter
T1 sequence (P04062 40-536): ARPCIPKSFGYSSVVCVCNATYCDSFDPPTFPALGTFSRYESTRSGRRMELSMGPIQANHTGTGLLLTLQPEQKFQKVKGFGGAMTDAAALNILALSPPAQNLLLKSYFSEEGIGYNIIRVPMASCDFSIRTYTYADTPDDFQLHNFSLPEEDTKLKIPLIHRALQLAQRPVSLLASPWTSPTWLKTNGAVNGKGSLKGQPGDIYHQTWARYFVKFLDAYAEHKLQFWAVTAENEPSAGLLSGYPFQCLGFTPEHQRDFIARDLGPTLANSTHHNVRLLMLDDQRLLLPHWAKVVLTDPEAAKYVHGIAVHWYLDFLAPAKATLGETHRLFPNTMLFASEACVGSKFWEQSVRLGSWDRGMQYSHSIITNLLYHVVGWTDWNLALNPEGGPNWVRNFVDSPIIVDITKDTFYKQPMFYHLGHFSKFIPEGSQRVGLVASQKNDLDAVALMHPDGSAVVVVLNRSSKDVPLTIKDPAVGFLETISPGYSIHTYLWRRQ
Text: (§1) Figure 1. HiBiT-tagged GCase retains normal trafficking and function, enabling a high-throughput screening assay measuring cellular GCase levels. (A) GCase was labeled with a small (1.3 kDa), pro-luminescent, N-terminal HiBiT peptide tag immediately following the signal peptide (SP) sequence. (B) This HiBiT-GCase reporter (WT, N370S, or L444P) was engineered into a human Citrate Lyase Beta-Like (CLYBL) intragenic safe-harbor locus within a GBA1-KO H4 cell background using TALEN-enhanced integrative gene transfer. (C) Co-localization of GCase (green) with lysosomal marker LAMP1 (magenta) was determined by immunofluorescent staining. […] (G) GCase protein levels were quantitated by AlphaLISA (Amplified Luminescent Proximity Homogeneous Assay) utilizing a sandwich configuration of two monoclonal antibodies recognizing non-overlapping epitopes, hGCase-1/23 (which was biotinylated and associated with a streptavidin-coated donor bead) and hGCase-1/17 (which was directly conjugated to an acceptor bead). […] (H) GCase activity was measured in cell lysates using the fluorogenic substrate 4-methylumbelliferyl-β-D-glucopyranoside. Relative GCase activity was calculated by adjusting for protein concentration, correcting for GBA1-KO H4 cell background, and normalizing to GBA1-WT signal. […]

HiBiT-GCase-N370S = biological target: T2, HiBiT-GCase-N370S (Homo sapiens, UniProt P04062, N409S); test: HiBiT-GCase-N370S lytic luminescence assay, H4 reporter cells; type: cell-based; settings: 24 h treatment, 1536-well format
T2 construct: expressed in transfected cells; host or cells: GBA1-KO H4 human neuroglioma cells; transgene stably integrated at the CLYBL safe-harbor locus by TALENs; CAG promoter
T2 sequence (P04062 40-536 N409S): T1 sequence (P04062 40-536) with N370S
Text: as §1

recombinant GCase-WT = biological target: T3, recombinant GCase-WT (Homo sapiens, UniProt P04062); test: Microscale thermophoresis (MST) target engagement; type: binding; settings: 50 mM sodium citrate buffer (pH 5.5); n = 2; read-out: dissociation constant (Kd)
T3 construct: purchased Bio-Techne 7410-GHB-020
T3 sequence (P04062 40-536): T1 sequence (P04062 40-536)
Experimental: Microscale thermophoresis (MST) experiments were performed using the Monolith NT.Automated instrument (NanoTemper Technologies). […] The recombinant GCase was further diluted with assay buffer (50 mM sodium citrate, pH 5.5) to 0.160 mg/mL and incubated (RT) for 30 min with 50 nM RED-tris-NTA 2nd Generation dye from the Monolith His-Tag Labeling Kit (Cat.#MO-L018; NanoTemper Technologies). The labeling reaction mixture was centrifuged for 10 min at 4°C and 15,000 × g to remove protein aggregates, after which the supernatant was diluted 2.5x with assay buffer. For each compound measured, a 12-point, 2x titration series of compound in DMSO was prepared; 1 μL of compound in DMSO from each point in the titration series was combined with 9 μL of assay buffer and 10 μL of labeled GCase in a 384-well plate, which was left standing for 30 min (RT). The resultant final concentration of labeled GCase was ~570 nM (in 5% DMSO).

[1] = test system: integrated stress response (ISR); set-up: method as in PMID 23741617; settings: read-out: IC50 (potency with which ISRIB modifies its target); cited from earlier work

Row | SMILES | effect on HiBiT-GCase-WT levels (in words) (HiBiT-GCase-WT) | effect on HiBiT-GCase-N370S levels (in words) (HiBiT-GCase-N370S) | Kd (recombinant GCase-WT) | IC50 [1]
1 | C#Cc1ccc(NC(=O)c2cnn3c(C)cc(C)nc23)cc1 [NCGC758] | inactive in all three lines | inactive in all three lines | – | –
2 | O=C(COc1ccccc1C(=O)Nc1ccc(I)cc1)Nc1ccc(I)cc1 [NCGC00241326-01, N-(4-iodophenyl)-2-(2-((4-iodophenyl)amino)-2-oxoethoxy)benzamide] | – | – | 3750 nM | –
3 | Nc1c(Br)cc(Br)cc1CN[C@H]1CC[C@H](O)CC1 [NCGC00371077-02, Ambroxol HCl] | increased HiBiT-GCase levels in all three lines | increased HiBiT-GCase levels in all three lines | – | –
4 | O=C(COc1ccc(Cl)cc1)N[C@H]1CC[C@H](NC(=O)COc2ccc(Cl)cc2)CC1 [NCGC00384174-12, trans-ISRIB] | – | – | – | 5 nM
